# Assay results reported in patent publication EP0256125A1, “MEANS FOR PREVENTING MICROBIOLOGICAL OVERGROWING OF HARD SURFACE” (priority 1985, dated 1987).
# Legend:
# Acremonium charticola = test: Fungicidal activity, inhibition of mycelium growth on wort agar; assay type: cell-based
# From the text: (§1) Man prüfte die funguzide Aktivität von Zink-bis-(N-vi- nyloxyethyl)dithiocarbamat gegenüber den reinen Pilzkulturen: Gladosporium resinae, Cladosporium cladosporioides, Acremonium corvum, Acremonium charticola, Penicillium charlesii Smith, Walrotiela subiculesa, Geotrichum candidum Link, Oidium, Penicillium crysogenum. Die genannten Pilze wurden von den Oberflächen der Wände und Decken von Bierbrauereien und Werken für die Herstellung von alkoholfreien Getränken ausgeschieden.
# (§2) […] In eine der Petri-Schalen wurde Nährboden mit 1 ml Azeton (Kontrolle) gegossen.
# (§3) In 18 bis 20 Stunden nach dem Vergießen des Nährbodens in die Petri-Schalen führte man die Inokulation der reinen Pilzkultur durch, die vorher an einem Schräg-Würzeagar während 15 Tage gezüchtet wurden. Die Inkubation führte man bei einer Temperatur von 25 bis 27°C während 5 Tage durch. Danach wurde der Durchmesser der Pilzkolonien gemessen und der Prozentsatz der Hemmung des Wachstums des Myzeliums (S) nach der Abbott -Formel gezählt: [formula] worin dc Durchmesser der Pilzkolonien in Kontrolle ist, de =Durchmesser der Pilzkolonien in einer Schale mit dem Nährboden ist, der Zink-bis-(N-vinyloxyethyl)dithiocarbamat enthält.
# Acremonium corvum = test: as above; assay type: cell-based
# From the text: as §1, §2, §3
# [1] = system: Cladosporium cladosporioides; test: as above; assay type: cell-based
# From the text: as §1, §2, §3
# Cladosporium resinae = test: as above; assay type: cell-based
# From the text: as §1, §2, §3
# Geotrichum candidum Link = test: as above; assay type: cell-based
# From the text: as §1, §2, §3
# Oidium = test: as above; assay type: cell-based
# From the text: as §1, §2, §3
# [2] = system: Penicillium charlesii Smith; test: as above; assay type: cell-based
# From the text: as §1, §2, §3
# Penicillium chrysogenum = test: as above; assay type: cell-based
# From the text: as §1, §2, §3
# Walrotiela subiculesa = test: as above; assay type: cell-based
# From the text: as §1, §2, §3
# [3] = system: Schimmelpilzen, die die Bewachsung von Oberflächen hervorrufen; test: Fungicidal activity, summary over all tested fungi; assay type: cell-based; conditions: day 5
# From the text: as §1
# Es wurden Lösungen des Zink-bis-(N-vinyloxyethyl)di- thiocarbamats im Azeton verschiedener Konzentration hergestellt, die so berechnet wurde, daß bei der Einführung vor 1 ml Lösung in 10 ml des geschmolzenen Würzeagars (45-50°C) die Konzentration des genannten Stoffes im Medium von 0,0015 bis 0,012% betrug. In eine der Petri-Schalen wurde Nährboden mit 1 ml Azeton (Kontrolle) gegossen.
# as §3
# p. Escherichiae = test: Bactericidal activity, growth on agar medium; assay type: cell-based; conditions: 37°C, 5 Tage
# Description: (§4) Die bakterizide Aktivität des Kalium N-(vinyloxyethyl)-dithiocarbamats gegenüber den Bakterien, die von der Oberfläche von Wänden und Decken der Produktionsräume von Brauereien und Fabriken zur Herstellunq von alkoholfreien Getränken ausgeschieden wurden und die zu p.p.Bacillus, Micrococcus, Pseudomonas, Escherichiae gehören, wurde geprüft.
# (§5) Es wurden wäßrige Lösungen des genannten Stoffes verschiedener Konzentration hergestellt, die so berechnet wurde, daß bei Einführung von 1 ml der Lösung in 25 ml geschmolzenen agarisierten Nährboden (45-50°C) die Konzentration des Stoffes im Nährboden von 0,003 bis 0,5% betrug. In 18 bis 24 Stunden wurde auf die Oberfläche des Nährbodens 0,1 ml der wäßrigen Suspension der eintägigen reinen Bakterienkulturen aufgetragen, die am Fleisch-Pepton-Agar gezüchtet wurden. Die Suspension wurde gleichmäßig verteilt. In Kontrollschalen wurden 0,1 ml Wasser auf der Oberfläche des Närhbodens verteilt.
# (§6) Die Inkubation führte man bei einer Temperatur von 37°C während 5 Tage durch.
# (§7) Die effektive Wirkung des Stoffes wurde nach dem Auftreten des Bakterienwachstums an der Oberfläche des Nährbodens bewertet.
# p.Bacillus = test: Bactericidal activity, growth on agar medium; assay type: cell-based; conditions: 37°C, 5 Tage
# Description: as §4, §5, §6, §7
# p.Micrococcus = test: Bactericidal activity, growth on agar medium; assay type: cell-based; conditions: 37°C, 5 Tage
# Description: as §4, §5, §6, §7
# p.Pseudomonas = test: Bactericidal activity, growth on agar medium; assay type: cell-based; conditions: 37°C, 5 Tage
# Description: as §4, §5, §6, §7
# [4] = Storage stability (qualitative); assay type: physicochemical; conditions: result in words
# weißen Mäusen = test: Acute toxicity in white mice; conditions: intraabdominale Einführung bei weißen Mäusen
# [5] = Solubility in solvents (qualitative)
# [6] = Konzentration des Stoffes 0,1 % (0,10)
# [7] = Konzentration des Stoffes 0,05 %
# [8] = Konzentration des Stoffes 0,15 %
substance,measurement,setting,value
Kupfer-N-(vinyloxyethyl)dithiocarbamat,"Hemmung des Myzeliums am 5. Tag des Wachstums, Acremonium charticola",Acremonium charticola; [6],100%
same,"Hemmung des Myzeliums am 5. Tag des Wachstums, Acremonium charticola",Acremonium charticola; [7],43%
same,"Hemmung des Myzeliums am 5. Tag des Wachstums, Acremonium charticola",Acremonium charticola; [8],100%
same,"Hemmung des Myzeliums am 5. Tag des Wachstums, Acremonium corvum",Acremonium corvum; [6],100%
same,"Hemmung des Myzeliums am 5. Tag des Wachstums, Acremonium corvum",Acremonium corvum; [7],50%
same,"Hemmung des Myzeliums am 5. Tag des Wachstums, Acremonium corvum",Acremonium corvum; [8],100%
same,"Hemmung des Myzeliums am 5. Tag des Wachstums, Cladosporium cladosporioides",[1]; [6],100%
same,"Hemmung des Myzeliums am 5. Tag des Wachstums, Cladosporium cladosporioides",[1]; [7],45%
same,"Hemmung des Myzeliums am 5. Tag des Wachstums, Cladosporium cladosporioides",[1]; [8],100%
same,"Hemmung des Myzeliums am 5. Tag des Wachstums, Cladosporium resinae",Cladosporium resinae; [6],43%
same,"Hemmung des Myzeliums am 5. Tag des Wachstums, Cladosporium resinae",Cladosporium resinae; [7],34%
same,"Hemmung des Myzeliums am 5. Tag des Wachstums, Cladosporium resinae",Cladosporium resinae; [8],100%
same,"Hemmung des Myzeliums am 5. Tag des Wachstums, Geotrichum candidum Link",Geotrichum candidum Link; [6],50%
same,"Hemmung des Myzeliums am 5. Tag des Wachstums, Geotrichum candidum Link",Geotrichum candidum Link; [7],3%
same,"Hemmung des Myzeliums am 5. Tag des Wachstums, Geotrichum candidum Link",Geotrichum candidum Link; [8],100%
same,"Hemmung des Myzeliums am 5. Tag des Wachstums, Oidium","Oidium; Konzentration des Stoffes 0,1 %",67%
same,"Hemmung des Myzeliums am 5. Tag des Wachstums, Oidium",Oidium; [7],0%
same,"Hemmung des Myzeliums am 5. Tag des Wachstums, Oidium",Oidium; [8],100%
same,"Hemmung des Myzeliums am 5. Tag des Wachstums, Penicillium charlesii Smith",[2]; [6],56%
same,"Hemmung des Myzeliums am 5. Tag des Wachstums, Penicillium charlesii Smith",[2]; [7],24%
same,"Hemmung des Myzeliums am 5. Tag des Wachstums, Penicillium charlesii Smith",[2]; [8],92%
same,"Hemmung des Myzeliums am 5. Tag des Wachstums, Penicillium chrysogenum",Penicillium chrysogenum; [6],24%
same,"Hemmung des Myzeliums am 5. Tag des Wachstums, Penicillium chrysogenum",Penicillium chrysogenum; [7],4%
same,"Hemmung des Myzeliums am 5. Tag des Wachstums, Penicillium chrysogenum",Penicillium chrysogenum; [8],85%
same,"Hemmung des Myzeliums am 5. Tag des Wachstums, Walrotiela subiculesa",Walrotiela subiculesa; [6],100%
same,"Hemmung des Myzeliums am 5. Tag des Wachstums, Walrotiela subiculesa",Walrotiela subiculesa; [7],30%
same,"Hemmung des Myzeliums am 5. Tag des Wachstums, Walrotiela subiculesa",Walrotiela subiculesa; [8],100%
same,"Konzentration, bei der die Entwicklung aller untersuchten Pilze vollständig gehemmt wurde",[3],"0,15%"
same,"Konzentration der Salze der N-(vinyloxyethyl)dithiocarbaminsäure (100%), die das Wachstum der Bakterien am 5. Tag des Wachstums hemmen, p. Escherichiae",p. Escherichiae,"0,25%"
same,"Konzentration der Salze der N-(vinyloxyethyl)dithiocarbaminsäure (100%), die das Wachstum der Bakterien am 5. Tag des Wachstums hemmen, p.Bacillus",p.Bacillus,"0,25%"
same,"Konzentration der Salze der N-(vinyloxyethyl)dithiocarbaminsäure (100%), die das Wachstum der Bakterien am 5. Tag des Wachstums hemmen, p.Micrococcus",p.Micrococcus,"0,25%"
same,"Konzentration der Salze der N-(vinyloxyethyl)dithiocarbaminsäure (100%), die das Wachstum der Bakterien am 5. Tag des Wachstums hemmen, p.Pseudomonas",p.Pseudomonas,"0,25%"
same,Lagerbeständigkeit,[4],lagerbeständig
same,LD50,weißen Mäusen,267 mg/kg
same,Löslichkeit im Alkohol,[5]; Alkohol (Ethylalkohol),teilweise löslich
same,Löslichkeit im Azeton,[5]; Azeton,teilweise löslich
same,Löslichkeit im Diethylether,[5]; Diethylether,unlöslich
same,Löslichkeit im Dimethylsulfoxid,[5]; Dimethylsulfoxid,gut
same,Löslichkeit in Wasser,[5]; Wasser,unlöslich
